How the values were obtained:
Ebola virus = conditions: in vivo; cited from earlier work
in vitro = conditions: human
[1] = human, in vivo; cited from earlier work
EBOV minigenome = format: cell-based, Ebola virus

CCN(CC)Cc1cc(Nc2ccnc3cc(Cl)ccc23)ccc1O [Amodiaquine, amodiaquine]
Selectivity index (Huh7 cells): 37 | case mortality (Ebola virus): 50% | CC50 (in vitro): 79 µM

CCNCc1cc(Nc2ccnc3cc(Cl)ccc23)ccc1O [desethyl-amodiaquine]
half-life [1]: 220 to 432 h

COc1c(C)c2c(c(O)c1C/C=C(\C)CCC(=O)O)C(=O)OC2 [mycophenolic acid]
activity of EBOV minigenome (firefly luciferase normalized to renilla) (EBOV minigenome): effectively blocked the signal from the minigenome

Reference: publication PMC6374029 (Antiviral Research, 2018)
